# Reference: US20090047243A1, “COMBINATIONS FOR THE TREATMENT OF B-CELL PROLIFERATIVE DISORDERS” (priority 2007, published 2009)
# Structures can show the parent of a compound that is named as a salt.
# Legend:
# [1] = system: H929 multiple myeloma cell line; assay: Anti-proliferation assay (ATPLite, 72 h); type: cell-based, human; set-up: key: S = lnfX·lnfY·ΣIdata(Idata−ILoewe), volume over Loewe additivity; conditions: for synergy (score), PDEi × HE-NECA: 6×6 cross of PDE inhibitor or PDE inhibitor mixture with HE-NECA
# How it was run: (§1)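 ATPLite luminescence readout; ANBL6 medium + 10 ng/ml IL-6. Single agents tested at 12 concentrations, 2- or 3-fold serial dilutions. % inhibition vs untreated-well mean.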
# [2] = system: RPMI-8226 multiple myeloma cell line; assay: Anti-proliferation assay (ATPLite, 72 h); type: cell-based, human; set-up: key: S = lnfX·lnfY·ΣIdata(Idata−ILoewe), volume over Loewe additivity
# How it was run: as §1
# [3] = system: KSM-12-PE MM cell line; assay: Anti-proliferation assay (ATPLite, 72 h); type: cell-based, human; conditions: CGS-21680 × PDE inhibitor
# Description: ANBL6 and INA-6 culture media was also supplemented with 10 ng/ml IL-6. […] MM.1S, MM.1R, OCI-ly10, Karpas 422, and SU-DHL6 cells were provided by the Dana Farber Cancer Institute. H929, RPMI-8226, GA-10, and Farage cells were from ATCC (Cat #'s CCL-155, CRL-9068, CRL-2392 and CRL-2630 respectively). MOLP-8, EJM, KSM-12-PE, and OPM2 were from DSMZ. The ANBL6 and INA-6 cell lines were provided by the M. D. Anderson Cancer Research Center. Compounds were prepared in DMSO at 1000× the highest desired concentration. Master plates were generated consisting of serially diluted compounds in 2- or 3-fold dilutions in 384-well format. For single agent dose response curves, the master plates consisted of 9 individual compounds at 12 concentrations in 2- or 3-fold dilutions. For combination matrices, master plates consisted of individual compounds at 6 or 9 concentrations at 2- or 3-fold dilutions. […] To obtain combination data, two master plates were diluted into the assay plates. […] Thirty microliters of ATPLite (Perkin Elmer) at room temperature was then added to each well. […] Measurements were taken at the top of the well using a luminescence aperture and a read time of 0.1 seconds per well. The percent inhibition (% I) for each well was calculated using the following formula: % I=[(avg. untreated wells-treated well)/(avg. untreated wells)]×100. […] Negative inhibition values result from local variations in treated wells as compared to untreated wells. […] The uncertainty of each fitted parameter was estimated from the range over which the change in reduced chi-squared was less than one, or less than minimum reduced chi-squared if that minimum exceeded one, to allow for underestimated σI errors. Single agent curve data were used to define a dilution series for each compound to be used for combination screening in a 6×6 matrix format. […] The Loewe additivity model was used to quantify combination effects. […] A “Synergy Score” was also used, where the Synergy Score S=log fX log fY ΣIdata(Idata-ILoewe), summed over all non-single-agent concentration pairs, and where log fX,Y is the natural logarithm of the dilution factors used for each single agent. This effectively calculates a volume between the measured and Loewe additive response surfaces, weighted towards high inhibition and corrected for varying dilution factors. An uncertainty σS was calculated for each synergy score, based on the measured errors for the Idata values and standard error propagation.
# [4] = system: human multiple myeloma cells (MM.1R); assay: Anti-proliferation assay (ATPLite, 72 h); type: cell-based; set-up: key: S = lnfX·lnfY·ΣIdata(Idata−ILoewe), volume over Loewe additivity
# How it was run: as §1
# [5] = system: human multiple myeloma cells (MM.1R) transfected with siRNA; assay: Anti-proliferation assay after siRNA transfection; type: cell-based
# Description: siRNA to adenosine receptor A1, A2A, A3, PDE 2A, PDE 3B, PDE 4B, PDE 4D and PDE 7A, and control siRNA siCON were purchased from Dharmacon. A2B siRNA was purchased from Invitrogen. Electroporations were performed using an Amaxa Nucleoporator (program S-20) and solution V. siRNAs were used at 50 nM. […] RNA was isolated using Qiagen RNAeasy kits, and targets quantified by RT-PCR using gene specific primers purchased from Applied Biosystems.
# Cells were added to 384-well plates 24 hours prior to compound addition such that each well contained 2000 cells in 35 μL of media. Master plates were diluted 100× (1 μL into 100 μL) into 384-well dilution plates containing only cell culture media. 4.5 μL from each dilution plate was added to each assay plate for a final dilution of 1000×. To obtain combination data, two master plates were diluted into the assay plates. Following compound addition, assay plates were kept at 37° C. and 5% CO2 for 72 hours. Thirty microliters of ATPLite (Perkin Elmer) at room temperature was then added to each well. Final amount of ATP was quantified within 30 minutes using ATPLite luminescent read-out on an Envision 2103 Multilabel Reader (Perkin Elmer). Measurements were taken at the top of the well using a luminescence aperture and a read time of 0.1 seconds per well.
# We also examined the antiproliferative activity of adenosine receptor agonists when the MM cell line MM.1R was transfected with siRNA targeting the A1, A2A, A2B or A3 receptor. Specific gene silencing (A1, A2A, A2B, or A3) was greater than 50% as determined by real time PCR analysis 48 hours post-transfection. At 48 hours post-transfection, cells were exposed to adenosine receptor agonist, incubated an additional 72 hours, and compounds assayed for antiproliferative activity. Representative data is in Table 34. Cells transfected with adenosine receptor siRNA or a control siRNA (scrambled sequences designed so that cellular transcriptsare not targeted) were treated with the adenosine receptor agonist ADAC. […] Similar results were obtained with a second siRNA with specificity for different region of the A2A receptor mRNA, confirming that the reduction in adenosine receptor agonist activity is the result of specific siRNA targeting of the A2A receptor (data not shown).
# In our experiments, PDE gene silencing was always greater than 50% as confirmed by real time PCR analysis 48 hours post-transfection. At 48 hours post-transfection, cells were exposed to adenosine receptor agonist and PDE inhibitor, incubated an additional 72 hours, and compounds assayed for antiproliferative activity. Representative data is in Tables 39-45. For each analysis, the activity of cells transfected with an siRNA targeting a specific PDE was compared to cells transfected with a control non-targeting siRNA (siCON).
# [6] = PDE inhibitor crossed with (S) ENBA, H929
# [7] = PDE inhibitor crossed with Chloro-IB-MECA, H929
# [8] = PDE inhibitor crossed with HE-NECA, H929
# [9] = in combination with adenosine receptor agonist CGS-21680, H929
# [10] = in combination with adenosine receptor agonist HE-NECA, H929
# [11] = in combination with adenosine receptor agonist regadenoson, H929
# [12] = in combination with adenosine receptor agonist CGS-21680, RPMI 8226
# [13] = in combination with adenosine receptor agonist HE-NECA, RPMI-8226
# [14] = in combination with adenosine receptor agonist regadenoson, RPMI 8226
# [15] = in combination with adenosine receptor agonist CGS-21680, MM.1R
# [16] = in combination with adenosine receptor agonist regadenoson, MM.1R
structure (smiles),measurement,setting,value
"COc1cc(-c2ccc(=O)[nH]n2)ccc1OC(F)F [Zardaverine, 6-(4-(difluoromethoxy)-3-methoxyphenyl)-3(2H)-Pyridazinone]","synergy (score), PDEi × HE-NECA",[1]; H929,3.39
same,synergy score,[1]; [6],4.02
same,synergy score,[1]; [7],2.97
same,synergy score,[1]; [8],3.39
same,synergy score,[1]; [9],3.75
same,synergy score,[1]; [10],3.39
same,synergy score,[1]; [11],1.02
same,synergy score,[2]; [12],0.13
same,synergy score,[2]; [13],0.43
same,synergy score,[2]; [14],0.52
same,synergy score,[3],0.49
same,synergy score,[4]; [15],2.15
same,synergy score,[4]; [16],1.49
"COc1cc2c(cc1OC)-c1cc(=Nc3c(C)cc(C)cc3C)n(C)c(=O)n1CC2 [Trequinsin hydrochloride, 2,3,6,7-tetrahydro-9,10-dimethoxy-3-methyl-2-((2,4,6-trimethylphenyl)imino)-4H-pyrimido(6,1-a)isoquinolin-4-one]","synergy (score), PDEi × HE-NECA",[1]; H929,4.22
same,synergy score,[1]; [6],3.38
same,synergy score,"[1]; PDE inhibitor crossed with ADAC, H929",3.04
same,synergy score,[1]; [7],2.77
same,synergy score,[1]; [8],4.34
same,synergy score,"[1]; in combination with adenosine receptor agonist ADAC, H929",3.044
same,synergy score,[1]; [9],3.33
same,synergy score,[1]; [10],3.141
same,synergy score,[1]; [11],1.99
same,synergy score,"[2]; in combination with adenosine receptor agonist ADAC, RPMI-8226",0.9183
same,synergy score,[2]; [12],0.72
same,synergy score,[2]; [13],0.793
same,synergy score,[2]; [14],0.4
same,synergy score,[3],2.44
same,synergy score,"[4]; in combination with adenosine receptor agonist ADAC, MM.1R",6.47
same,synergy score,[4]; [15],6.57
same,synergy score,"[4]; in combination with adenosine receptor agonist HE-NECA, MM.1R",4.329
same,synergy score,[4]; [16],2.8
"NCCNC(=O)Cc1ccc(NC(=O)Cc2ccc(Nc3ncnc4c3ncn4[C@@H]3O[C@H](CO)[C@@H](O)[C@H]3O)cc2)cc1 [ADAC, N-(4-(2-((4-(2-((2-aminoethyl)amino)-2-oxoethyl)phenyl)amino)-2-oxoethyl)phenyl)-Adenosine]",Antiproliferative activity,"[5]; A1 siRNA, ADAC 0.013 μM",18%
same,Antiproliferative activity,"[5]; A1 siRNA, ADAC 0.063 μM",16%
same,Antiproliferative activity,"[5]; A1 siRNA, ADAC 0.51 μM",41%
same,Antiproliferative activity,"[5]; A1 siRNA, ADAC 1 μM",52%
same,Antiproliferative activity,"[5]; A2A siRNA, ADAC 0.013 μM",12%
same,Antiproliferative activity,"[5]; A2A siRNA, ADAC 0.063 μM",6.7%
same,Antiproliferative activity,"[5]; A2A siRNA, ADAC 0.51 μM",19%
same,Antiproliferative activity,"[5]; A2A siRNA, ADAC 1 μM",24%
same,Antiproliferative activity,"[5]; A2B siRNA, ADAC 0.013 μM",17%
same,Antiproliferative activity,"[5]; A2B siRNA, ADAC 0.063 μM",12%
same,Antiproliferative activity,"[5]; A2B siRNA, ADAC 0.51 μM",40%
same,Antiproliferative activity,"[5]; A2B siRNA, ADAC 1 μM",53%
same,Antiproliferative activity,"[5]; A3 siRNA, ADAC 0.013 μM",22%
same,Antiproliferative activity,"[5]; A3 siRNA, ADAC 0.063 μM",18%
same,Antiproliferative activity,"[5]; A3 siRNA, ADAC 0.51 μM",46%
same,Antiproliferative activity,"[5]; A3 siRNA, ADAC 1 μM",54%
same,antiproliferative activity after siRNA silencing,"[5]; MM.1R, siRNA that targeted the A2A receptor",reduced
same,antiproliferative activity after siRNA silencing,"[5]; MM.1R, siRNA to the A1, A2B, or A3 receptor",did not affect ADAC activity
same,Antiproliferative activity,"[5]; control siRNA, ADAC 0.013 μM",19%
same,Antiproliferative activity,"[5]; control siRNA, ADAC 0.063 μM",15%
same,Antiproliferative activity,"[5]; control siRNA, ADAC 0.51 μM",43%
same,Antiproliferative activity,"[5]; control siRNA, ADAC 1 μM",54%
"CCCCC#Cc1nc(N)c2ncn([C@@H]3O[C@H](C(=O)NCC)[C@@H](O)[C@H]3O)c2n1 [HE-NECA, hexynyladenosine-5′-N-ethylcarboxamide]",Antiproliferative activity,"[5]; A2A siRNA, HE-NECA 0.5 μM",30%
same,Antiproliferative activity,"[5]; A2A siRNA, HE-NECA 1 μM",29%
same,Antiproliferative activity,"[5]; A2A siRNA, HE-NECA 2 μM",38%
same,Antiproliferative activity,"[5]; A2A siRNA, HE-NECA 4.1 μM",40%
same,effect of A2A receptor silencing on agonist activity,"[5]; MM.1R, A2A siRNA",strong effect
same,Antiproliferative activity,"[5]; MM.1R, siRNA targeting PDE 2A, HE-NECA 1.25 nM, R-(−)-Rolipram 0 μM",36
same,Antiproliferative activity,"[5]; MM.1R, siRNA targeting PDE 2A, HE-NECA 5 nM, R-(−)-Rolipram 0 μM",51
same,Antiproliferative activity,"[5]; MM.1R, siRNA targeting PDE 2A, HE-NECA 10 nM, R-(−)-Rolipram 0 μM",55
same,Antiproliferative activity,"[5]; MM.1R, siRNA targeting PDE 2A, HE-NECA 20 nM, R-(−)-Rolipram 0 μM",68
same,Antiproliferative activity,"[5]; MM.1R, siRNA targeting PDE 2A, HE-NECA […], R-(−)-Rolipram 0 μM",48
same,Antiproliferative activity,"[5]; control siRNA, HE-NECA 0.5 μM",68%
same,Antiproliferative activity,"[5]; control siRNA, HE-NECA 1 μM",68%
same,Antiproliferative activity,"[5]; control siRNA, HE-NECA 2 μM",73%
same,Antiproliferative activity,"[5]; control siRNA, HE-NECA 4.1 μM",74%
